Measured values published in patent publication US20240150356A1, “Pyrimidine amide compounds and use thereof” (ALPHALA CO., LTD., priority 2019, published 2024).
Read-outs that look alike come from different tables or passages of the source.

Columns and labels:
Assay type in all cases: cell-based
[1] = test system: Hep3B cells (hepatocellular carcinoma cell line); test: In vitro MTS cell viability assay (NCI-60 methodology), Hep3B; details: Homo sapiens, 48 h, 2 days drug incubation, 50% reduction vs time zero, read-out: Hep3B LC50
Procedure, shortened: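 Following NCI-60 method, MTS viability of Hep3B measured 24 h after plating (time zero) and after a further 2-day exposure to five concentrations (2-fold series). LC50 defined where [(Ti−Tz)/Tz]×100 = −50.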

[2] = test system: SW480 (colon adenocarcinoma cell line); test: In vitro MTS cell viability assay (NCI-60 methodology), SW480; details: Homo sapiens, SW480 cells, read-out: SW480 LC50
Procedure: (§1) The cell viability measurement is based on the NCI-60 screening methodology (Nat. Rev. Cancer 6, 813-823, 2006). Briefly, cells are inoculated into 96-well plates at the optimal plating density. After 24 h, one of the two plates for Hep3B cell line is processed to determine a time zero cell viability (Tz) by MTS assay (Promega). Compounds are added over a 2-fold serial dilution to provide a total five drug concentrations plus DMSO control. Plates are incubated for a further 2 days, then measured cell viability by MTS assay [control growth (C) and test growth in the presence of drug at the five concentration levels (Ti)]. The LC50 is calculated from [(Ti−Tz)/Tz]×100=−50, which is the drug concentration resulting in a 50% reduction at the end of the drug treatment as compared to that at the beginning.
(§2) The compounds prepared in Tables 1-10 were tested in three in vitro assays, and the results are shown in Tables 1-10 for Hep3B and Table 11 for SW480 and NCI-H460 shown below. Herein, Hep3B refers to hepatocellular carcinoma cell line, SW480 refers to colon adenocarcinoma cell line, and NCI-H460 refers to human lung cancer cell line.
(§3) Shown in Tables 11 are in vitro activities of exemplary compounds of formula (I).

[3] = test system: NCI-H460 (human lung cancer cell line); test: In vitro MTS cell viability assay (NCI-60 methodology), NCI-H460; details: NCI-H460 cells, read-out: NCI-H460 LC50
Procedure: as §1, §2, §3

| SMILES | LC50 ([1]; Table 1, MTS) [nM] | CC50 [2] [nM] | CC50 [3] [nM] | LC50 ([1]; Table 4, MTS) [nM] | LC50 ([1]; Table 5, MTS) [nM] | LC50 ([1]; Table 6, MTS) [nM] |
| --- | --- | --- | --- | --- | --- | --- |
| CC(C)n1ncc2c(NC(=O)c3ccc([N+](=O)[O-])s3)nc(-c3ccc(OC(F)(F)F)cc3)nc21 [Compound 1-22, N-(1-isopropyl-6-(4-(trifluoromethoxy)phenyl)-1H-pyrazolo[3,4-d]pyrimidin-4-yl)-5-nitrothiophene-2-carboxamide] | 730 | 5380 | 2180 | – | – | – |
| CC(C)(C)n1ncc2c(NC(=O)c3ccc([N+](=O)[O-])s3)nc(-c3ccc(OC(F)(F)F)cc3)nc21 [Compound 1-27, N-(1-(tert-butyl)-6-(4-(trifluoromethoxy)phenyl)-1H-pyrazolo[3,4-d]pyrimidin-4-yl)-5-nitrothiophene-2-carboxamide] | 610 | 4140 | 1990 | – | – | – |
| Cc1csc2c(NC(=O)c3ccc([N+](=O)[O-])s3)nc(-c3ccc(C(F)(F)F)cc3)nc12 [Compound 4-2, N-(7-methyl-2-(4-(trifluoromethyl)phenyl)thieno[3,2-d]pyrimidin-4-yl)-5-nitrothiophene-2-carboxamide] | – | 10100 | 1650 | 970 | – | – |
| Cc1csc2c(NC(=O)c3ccc([N+](=O)[O-])s3)nc(-c3cccc(OC(F)(F)F)c3)nc12 [Compound 4-5, N-(7-methyl-2-(3-(trifluoromethoxy)phenyl)thieno[3,2-d]pyrimidin-4-yl)-5-nitrothiophene-2-carboxamide] | – | 3510 | 2450 | 790 | – | – |
| O=C(Nc1nc(N2CCC(F)(F)C2)nc2c1cnn2-c1ccccc1)c1ccc([N+](=O)[O-])s1 [Compound 5-6, N-(6-(3,3-difluoropyrrolidin-1-yl)-1-phenyl-1H-pyrazolo[3,4-d]pyrimidin-4-yl)-5-nitrothiophene-2-carboxamide] | – | 1960 | 1460 | – | 530 | – |
| O=C(Nc1nc(-c2cccs2)nc2c1cnn2-c1ccccc1)c1ccc([N+](=O)[O-])s1 [Compound 5-18, 5-nitro-N-(1-phenyl-6-(thiophen-2-yl)-1H-pyrazolo[3,4-d]pyrimidin-4-yl)thiophene-2-carboxamide] | – | 2430 | 460 | – | 580 | – |
| O=C(Nc1nc(-c2ccc(F)nc2)nc2c1cnn2-c1ccccc1)c1ccc([N+](=O)[O-])s1 [Compound 5-28, N-(6-(6-fluoropyridin-3-yl)-1-phenyl-1H-pyrazolo[3,4-d]pyrimidin-4-yl)-5-nitrothiophene-2-carboxamide] | – | 590 | 280 | – | 130 | – |
| O=C(Nc1nc(-c2cccc(Cl)c2)nc2c1cnn2-c1ccccc1)c1ccc([N+](=O)[O-])s1 [Compound 5-29, N-(6-(3-chlorophenyl)-1-phenyl-1H-pyrazolo[3,4-d]pyrimidin-4-yl)-5-nitrothiophene-2-carboxamide] | – | 660 | 950 | – | 210 | – |
| O=C(Nc1nc(-c2ccc(Cl)cc2)nc2c1cnn2-c1ccccc1)c1ccc([N+](=O)[O-])s1 [Compound 5-30, N-(6-(4-chlorophenyl)-1-phenyl-1H-pyrazolo[3,4-d]pyrimidin-4-yl)-5-nitrothiophene-2-carboxamide] | – | 2690 | 540 | – | 350 | – |
| O=C(Nc1nc(-c2ccc(Cl)nc2)nc2c1cnn2-c1ccccc1)c1ccc([N+](=O)[O-])s1 [Compound 5-31, N-(6-(6-chloropyridin-3-yl)-1-phenyl-1H-pyrazolo[3,4-d]pyrimidin-4-yl)-5-nitrothiophene-2-carboxamide] | – | 860 | 410 | – | 100 | – |
| N#Cc1ccc(-c2nc(NC(=O)c3ccc([N+](=O)[O-])s3)c3cnn(-c4ccccc4)c3n2)cc1 [Compound 5-32, N-(6-(4-cyanophenyl)-1-phenyl-1H-pyrazolo[3,4-d]pyrimidin-4-yl)-5-nitrothiophene-2-carboxamide] | – | 2770 | 1160 | – | 110 | – |
| N#Cc1ccc(-c2nc(NC(=O)c3ccc([N+](=O)[O-])s3)c3cnn(-c4ccccc4)c3n2)cn1 [Compound 5-33, N-(6-(6-cyanopyridin-3-yl)-1-phenyl-1H-pyrazolo[3,4-d]pyrimidin-4-yl)-5-nitrothiophene-2-carboxamide] | – | 600 | 1800 | – | 300 | – |
| COc1ccc(-c2nc(NC(=O)c3ccc([N+](=O)[O-])s3)c3cnn(-c4ccccc4)c3n2)cn1 [Compound 5-35, N-(6-(6-methoxypyridin-3-yl)-1-phenyl-1H-pyrazolo[3,4-d]pyrimidin-4-yl)-5-nitrothiophene-2-carboxamide] | – | 1110 | 650 | – | 180 | – |
| O=C(Nc1nc(-c2ccc(C(F)(F)F)cc2)nc2c1cnn2-c1ccccc1)c1ccc([N+](=O)[O-])s1 [Compound 5-39, 5-nitro-N-(1-phenyl-6-(4-(trifluoromethyl)phenyl)-1H-pyrazolo[3,4-d]pyrimidin-4-yl)thiophene-2-carboxamide] | – | > 10000 | 1250 | – | 320 | – |
| O=C(Nc1nc(-c2ccc(OC(F)(F)F)cc2)nc2c1cnn2-c1ccccc1)c1ccc([N+](=O)[O-])s1 [Compound 5-40, 5-nitro-N-(1-phenyl-6-(4-(trifluoromethoxy)phenyl)-1H-pyrazolo[3,4-d]pyrimidin-4-yl)thiophene-2-carboxamide] | – | 5420 | 930 | – | 430 | – |
| O=C(Nc1nc(-c2ccc(N3CCCCC3)nc2)nc2c1cnn2-c1ccccc1)c1ccc([N+](=O)[O-])s1 [Compound 5-42, 5-nitro-N-(1-phenyl-6-(6-(piperidin-1-yl)pyridin-3-yl)-1H-pyrazolo[3,4-d]pyrimidin-4-yl)thiophene-2-carboxamide] | – | 890 | 1670 | – | 510 | – |
| O=C(Nc1nc(-c2ccc(F)c(F)c2)nc2c1cnn2-c1ccccc1)c1ccc([N+](=O)[O-])s1 [Compound 5-44, N-(6-(3,4-difluorophenyl)-1-phenyl-1H-pyrazolo[3,4-d]pyrimidin-4-yl)-5-nitrothiophene-2-carboxamide] | – | 1620 | 4640 | – | 250 | – |
| O=C(Nc1nc(-c2ccc(F)cc2F)nc2c1cnn2-c1ccccc1)c1ccc([N+](=O)[O-])s1 [Compound 5-45, N-(6-(2,4-difluorophenyl)-1-phenyl-1H-pyrazolo[3,4-d]pyrimidin-4-yl)-5-nitrothiophene-2-carboxamide] | – | 1110 | 2180 | – | 440 | – |
| O=C(Nc1nc(-c2ccc(Cl)cc2F)nc2c1cnn2-c1ccccc1)c1ccc([N+](=O)[O-])s1 [Compound 5-47, N-(6-(4-chloro-2-fluorophenyl)-1-phenyl-1H-pyrazolo[3,4-d]pyrimidin-4-yl)-5-nitrothiophene-2-carboxamide] | – | 610 | 290 | – | 130 | – |
| O=C(Nc1nc(-c2ccc(Cl)cc2Cl)nc2c1cnn2-c1ccccc1)c1ccc([N+](=O)[O-])s1 [Compound 5-49] | – | 3750 | 1220 | – | 270 | – |
| O=C(Nc1nc(-c2ccc(OCC(F)(F)C(F)F)nc2)nc2c1cnn2-c1ccccc1)c1ccc([N+](=O)[O-])s1 [Compound 5-56, 5-nitro-N-(1-phenyl-6-(6-(2,2,3,3-tetrafluoropropoxy)pyridin-3-yl)-1H-pyrazolo[3,4-d]pyrimidin-4-yl)thiophene-2-carboxamide] | – | 730 | 1100 | – | 400 | – |
| Cc1ccc(-n2ncc3c(NC(=O)c4ccc([N+](=O)[O-])s4)nc(-c4ccc(F)cc4)nc32)cc1 [Compound 6-4, N-(6-(4-fluorophenyl)-1-(p-tolyl)-1H-pyrazolo[3,4-d]pyrimidin-4-yl)-5-nitrothiophene-2-carboxamide] | – | 1510 | 680 | – | – | 280 |
| Cc1ccc(-n2ncc3c(NC(=O)c4ccc([N+](=O)[O-])s4)nc(-c4ccc(F)nc4)nc32)cc1 [Compound 6-5, N-(6-(6-fluoropyridin-3-yl)-1-(p-tolyl)-1H-pyrazolo[3,4-d]pyrimidin-4-yl)-5-nitrothiophene-2-carboxamide] | – | 650 | 910 | – | – | 110 |
| Cc1ccc(-n2ncc3c(NC(=O)c4ccc([N+](=O)[O-])s4)nc(-c4ccc(F)cc4F)nc32)cc1 [Compound 6-11] | – | 670 | 330 | – | – | 280 |
| COc1ccc(-n2ncc3c(NC(=O)c4ccc([N+](=O)[O-])s4)nc(-c4ccc(F)cc4)nc32)cc1 [Compound 6-18, N-(6-(4-fluorophenyl)-1-(4-methoxyphenyl)-1H-pyrazolo[3,4-d]pyrimidin-4-yl)-5-nitrothiophene-2-carboxamide] | – | 1240 | 270 | – | – | 180 |
